How the values were obtained:
ITK = target: T1, ITK (Homo sapiens, UniProt Q08881); experiment: ITK inhibitor binding potency (LanthaScreen competitive binding assay); details: TR-FRET competitive binding, 10 nM ITK, 50 nM kinase tracer-236; pre-incubation condition not given; read-out: ITK Inhibition IC50
T1 sequence (Q08881 1-620): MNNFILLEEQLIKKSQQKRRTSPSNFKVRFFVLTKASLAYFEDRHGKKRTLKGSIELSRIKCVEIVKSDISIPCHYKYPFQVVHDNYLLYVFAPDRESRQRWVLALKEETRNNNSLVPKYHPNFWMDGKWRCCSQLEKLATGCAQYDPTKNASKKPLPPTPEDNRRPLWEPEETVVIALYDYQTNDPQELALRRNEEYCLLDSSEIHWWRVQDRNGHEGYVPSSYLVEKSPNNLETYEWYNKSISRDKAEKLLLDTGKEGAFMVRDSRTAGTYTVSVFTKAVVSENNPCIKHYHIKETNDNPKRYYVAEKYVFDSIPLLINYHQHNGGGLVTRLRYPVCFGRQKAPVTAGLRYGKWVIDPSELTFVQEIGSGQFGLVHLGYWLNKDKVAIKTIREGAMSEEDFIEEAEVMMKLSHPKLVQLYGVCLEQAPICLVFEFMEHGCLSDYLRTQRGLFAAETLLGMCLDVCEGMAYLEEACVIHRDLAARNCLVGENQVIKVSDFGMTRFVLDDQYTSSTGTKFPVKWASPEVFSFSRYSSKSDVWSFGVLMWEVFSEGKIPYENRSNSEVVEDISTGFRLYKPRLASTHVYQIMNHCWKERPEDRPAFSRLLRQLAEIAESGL
Method in brief: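 TR-FRET tracer displacement using 10 nM ITK, 2 nM Eu-anti-GST antibody, 50 nM kinase tracer-236 in 20 mM HEPES pH 7.5, 10 mM MgCl2, 0.01% BSA, 0.0005% Tween-20, 2% DMSO. Run with or without 2 h compound–ITK pre-incubation before tracer; 11-point dose-response 20 uM–0.34 nM, IC50 from 4-parameter fit of emission ratio.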

[1] = test system: ITK phosphorylation of its substrate, PLCγ1, at Y783; experiment: ITK target modulation assay (phospho-Y783 PLCγ1 immunoblot in Jurkat T cells); type: cell-based; details: Homo sapiens, Jurkat, 2 h, 2 hours compound, CD3/CD28 Dynabeads stimulation 100 sec, anti-phospho-Y783 PLCγ1 immunoblot, read-out: PLC-γ Inhibition IC50
Method in brief: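 Human Jurkat T cells (4 million per tube) were pretreated with compound for 2 hours at 37° C. They were then stimulated with CD3/CD28 Dynabeads (1 bead per cell) for 100 sec and lysed. Lysates were resolved by SDS-PAGE and immunoblotted for phospho-PLCγ1, with HRP secondary antibody and ECL detection.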

| IC50 (ITK) [µM] | IC50 [1] [µM] | SMILES |
| --- | --- | --- |
| ≤ 0.1 | 1 to 5 | CN(C)C/C=C/C(=O)N(C)c1cncc(-c2cnc3[nH]cc(-c4cccc(C#N)c4)c3c2)c1 [Example 72, (E)-N-(5-(3-(3-cyanophenyl)-1H-pyrrolo[2,3-b]-pyridin-5-yl)-pyridin-3-yl)-4-(dimethylamino)-N-methylbut-2-enamide] |
| ≤ 0.1 | ≤ 1 | C=CC(=O)N(C)c1cc(OC)cc(-c2cnc3[nH]cc(-c4cccc(C#N)c4)c3c2)c1 [Example 65, N-(3-(3-(3-cyano-phenyl)-1H-pyrrolo[2,3-b]-pyridin-5-yl)-5-methoxyphenyl)-N-methylacryl-amide] |
| ≤ 0.1 | ≤ 1 | C=CC(=O)Nc1cc(-c2cnc3[nH]cc(-c4ccnc(C#N)c4)c3c2)cc(C(F)(F)F)c1 [Example 35, N-(3-(3-(2-cyano-pyridin-4-yl)-1H-pyrrolo[2,3-b]-pyridin-5-yl)-5-(trifluoromethyl)-phenyl)acrylamide] |
| ≤ 0.1 | ≤ 1 | C=CC(=O)Nc1cc(OC)cc(-c2cnc3[nH]cc(-c4cccc(C#N)c4)c3c2)c1 [Example 16, N-(3-(3-(3-cyano-phenyl)-1H-pyrrolo[2,3-b]-pyridin-5-yl)-5-methoxyphenyl)-acrylamide] |
| ≤ 0.1 | ≤ 1 | Cc1cc(-c2c[nH]c3ncc(-c4cncc(NC(=O)/C=C/CN(C)C)c4)cc23)ccn1 [Example 42, (E)-4-(dimethyl-amino)-N-(5-(3-(2-methylpyridin-4-yl)-1H-pyrrolo-[2,3-b]pyridin-5-yl)pyridin-3-yl)-but-2-enamide] |
| ≤ 1 | ≤ 1 | C=CC(=O)Nc1cc(-c2cnc3[nH]cc(-c4cccc(C#N)c4)c3c2)cc(C(F)(F)F)c1 [Example 7, N-(3-(3-(3-cyano-phenyl)-1H-pyrrolo[2,3-b]-pyridin-5-yl)-5-(trifluoromethyl)-phenyl)acrylamide] |
| ≤ 0.1 | ≤ 1 | COc1cc(NC(=O)/C=C/CN(C)C)cc(-c2cnc3[nH]cc(-c4cccc(C#N)c4)c3c2)c1 [Example 19, (E)-N-(3-(3-(3-cyanophenyl)-1H-pyrrolo[2,3-b]-pyridin-5-yl)-5-methoxyphenyl)-4-(dimethyl-amino)but-2-enamide] |
| ≤ 0.1 | ≤ 1 | C=CC(=O)Nc1cc(OC)cc(-c2cnc3[nH]cc(-c4ccnc(NC)n4)c3c2)c1 [Example 41, N-(3-methoxy-5-(3-(2-(methyl-amino)pyrimidin-4-yl)-1H-pyrrolo-[2,3-b]pyridin-5-yl)phenyl)acryl-amide] |
